Legend:
johnsongrass = assay: Test C postemergence; assay type: in vivo, Sorghum halepense
Procedure, shortened: (§1)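 Test chemicals in a non-phytotoxic solvent mixture with surfactant were applied to pots of plants at 2 to 18 cm (1- to 4-leaf stage) for postemergence treatment, grown in a peat-based medium with vermiculite, starter nutrients and dolomitic limestone. Preemergence treatment was to seeds freshly planted in loam soil mixed with sand.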

morningglory = assay: Test C postemergence; assay type: in vivo, Ipomoea coccinea
Procedure, shortened: as §1

ducksalad = assay: Test B flooded paddy test; assay type: in vivo, Heteranthera limosa; conditions: 250 g ai/ha, applied to paddy water at 2-leaf stage, visual rating after 13 to 15 d, scale 0 (no effect) to 100 (complete control)
Procedure, shortened: (§2)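 Pots were flooded to 3 cm above the soil at treatment, and compounds were applied directly into the paddy water. That depth was held throughout. After 13 to 15 d in a greenhouse, plants were rated visually against untreated controls.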

ragweed = assay: Test C postemergence; assay type: in vivo, Ambrosia elatior
Procedure, shortened: as §1

barnyardgrass [1] = assay: Test A postemergence; assay type: in vivo, Echinochloa crus-galli; conditions: 0 to 100 scale (0 no effect, 100 complete control), approx. 10 d
Procedure, shortened: (§3)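 Test chemicals, formulated in a surfactant-containing non-phytotoxic solvent mixture, are applied either as a directed soil spray to newly planted seeds or as a postemergence application to plants at the one- to two-leaf stage (2–10 cm). All plants grow in a loam soil and sand blend.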

crabgrass, large = assay: Test C postemergence; assay type: in vivo, Digitaria sanguinalis
Procedure, shortened: as §1

corn = assay: Test A postemergence; assay type: in vivo, Zea mays; conditions: 0 to 100 scale (0 no effect, 100 complete control), approx. 10 d
Procedure, shortened: as §3

velvetleaf [2] = assay: Test C preemergence; assay type: in vivo, Abutilon theophrasti; conditions: for Velvetleaf plant response rating (0 to 100): Preemergence, visual rating after 13 to 15 d
Procedure, shortened: as §1

rice = assay: Test B flooded paddy test; assay type: in vivo, Oryza sativa; conditions: 250 g ai/ha, applied to paddy water at 2-leaf stage, visual rating after 13 to 15 d, scale 0 (no effect) to 100 (complete control)
Procedure, shortened: as §2

kochia = assay: Test C postemergence; assay type: in vivo, Kochia scoparia
Procedure, shortened: as §1

velvetleaf [3] = assay: Test C postemergence; assay type: in vivo, Abutilon theophrasti
Procedure, shortened: as §1

pigweed = assay: Test C postemergence; assay type: in vivo, Amaranthus retroflexus
Procedure, shortened: as §1

foxtail, giant = assay: Test A preemergence; assay type: in vivo, Setaria faberii; conditions: 0 to 100 scale (0 no effect, 100 complete control)
Procedure, shortened: as §3

barnyardgrass [4] = assay: Test A preemergence; assay type: in vivo, Echinochloa crus-galli; conditions: 0 to 100 scale (0 no effect, 100 complete control)
Procedure, shortened: as §3

For `FC(F)(F)COc1nc(-c2ccc(Cl)cc2)nn1Cc1ccnc(C(F)(F)F)c1` [Compound 31], the “Plant response rating (scale of 0 to 100 where 0 is no effect and 100 is complete control)” value (johnsongrass; 31 g ai/ha) was 35, the “Plant response rating (scale of 0 to 100 where 0 is no effect and 100 is complete control)” value (johnsongrass; 62 g ai/ha) was 25 and the “Plant response rating (scale of 0 to 100 where 0 is no effect and 100 is complete control)” value (johnsongrass; 125 g ai/ha) was 40. The “Plant response rating (scale of 0 to 100 where 0 is no effect and 100 is complete control)” value (johnsongrass; 250 g ai/ha) was 70, the “Plant response rating (scale of 0 to 100 where 0 is no effect and 100 is complete control)” value (morningglory; 31 g ai/ha) was 95 and the “Plant response rating (scale of 0 to 100 where 0 is no effect and 100 is complete control)” value (morningglory; 62 g ai/ha) was 60. For the same molecule, the “Plant response rating (scale of 0 to 100 where 0 is no effect and 100 is complete control)” value (morningglory; 125 g ai/ha) was 75, the “Plant response rating (scale of 0 to 100 where 0 is no effect and 100 is complete control)” value (morningglory; 250 g ai/ha) was 100 and the “Plant response rating, Ducksalad, Flood” value (ducksalad) was 70. The “Plant response rating (scale of 0 to 100 where 0 is no effect and 100 is complete control)” value (ragweed; 31 g ai/ha) was 70, the “Plant response rating (scale of 0 to 100 where 0 is no effect and 100 is complete control)” value (ragweed; 62 g ai/ha) was 75 and the “Plant response rating (scale of 0 to 100 where 0 is no effect and 100 is complete control)” value (ragweed; 125 g ai/ha) was 85. For the same molecule, the “Plant response rating (scale of 0 to 100 where 0 is no effect and 100 is complete control)” value (ragweed; 250 g ai/ha) was 100, the “Plant response rating, Barnyardgrass” value (barnyardgrass [1]; 125 g ai/ha) was 50 and the “Plant response rating, Barnyardgrass” value (barnyardgrass [1]; 500 g ai/ha) was 90. The “Plant response rating (scale of 0 to 100 where 0 is no effect and 100 is complete control)” value (crabgrass, large; 31 g ai/ha) was 20, the “Plant response rating (scale of 0 to 100 where 0 is no effect and 100 is complete control)” value (crabgrass, large; 62 g ai/ha) was 35 and the “Plant response rating (scale of 0 to 100 where 0 is no effect and 100 is complete control)” value (crabgrass, large; 125 g ai/ha) was 60. The “Plant response rating (scale of 0 to 100 where 0 is no effect and 100 is complete control)” value (crabgrass, large; 250 g ai/ha) was 80, the “Plant response rating, Corn” value (corn; 125 g ai/ha) was 20 and the “Plant response rating, Corn” value (corn; 500 g ai/ha) was 30. The “Velvetleaf plant response rating (0 to 100)” value (velvetleaf [2]; 31 g ai/ha) was 35, the “Velvetleaf plant response rating (0 to 100)” value (velvetleaf [2]; 62 g ai/ha) was 55 and the “Plant response rating (scale of 0 to 100 where 0 is no effect and 100 is complete control)” value (velvetleaf [2]; Velvetleaf, preemergence, 250 g ai/ha) was 80. For the same molecule, the “Plant response rating, Rice, Flood” value (rice) was 35, the “Plant response rating (scale of 0 to 100 where 0 is no effect and 100 is complete control)” value (kochia; 31 g ai/ha) was 90 and the “Plant response rating (scale of 0 to 100 where 0 is no effect and 100 is complete control)” value (kochia; 62 g ai/ha) was 90. For the same molecule, the “Plant response rating (scale of 0 to 100 where 0 is no effect and 100 is complete control)” value (kochia; 125 g ai/ha) was 90, the “Plant response rating (scale of 0 to 100 where 0 is no effect and 100 is complete control)” value (kochia; 250 g ai/ha) was 90 and the “Plant response rating (scale of 0 to 100 where 0 is no effect and 100 is complete control)” value (velvetleaf [3]; 31 g ai/ha) was 45. For the same molecule, the “Plant response rating (scale of 0 to 100 where 0 is no effect and 100 is complete control)” value (velvetleaf [3]; 62 g ai/ha) was 65, the “Plant response rating (scale of 0 to 100 where 0 is no effect and 100 is complete control)” value (velvetleaf [3]; 125 g ai/ha) was 65 and the “Plant response rating (scale of 0 to 100 where 0 is no effect and 100 is complete control)” value (velvetleaf [3]; 250 g ai/ha) was 75. For the same molecule, the “Plant response rating (scale of 0 to 100 where 0 is no effect and 100 is complete control)” value (pigweed; 31 g ai/ha) was 95, the “Plant response rating (scale of 0 to 100 where 0 is no effect and 100 is complete control)” value (pigweed; 62 g ai/ha) was 98 and the “Plant response rating (scale of 0 to 100 where 0 is no effect and 100 is complete control)” value (pigweed; 125 g ai/ha) was 100. The “Plant response rating (scale of 0 to 100 where 0 is no effect and 100 is complete control)” value (pigweed; 250 g ai/ha) was 98, the “Plant response rating, Foxtail, Giant” value (foxtail, giant; 125 g ai/ha) was 100 and the “Plant response rating, Foxtail, Giant” value (foxtail, giant; 500 g ai/ha, approx. 10 d) was 100. For the same molecule, the “Plant response rating, Barnyardgrass” value (barnyardgrass [4]; 125 g ai/ha) was 90 and the “Plant response rating, Barnyardgrass” value (barnyardgrass [4]; 500 g ai/ha, approx. 10 d) was 90.
